≈ marks a conversion by molar mass, not a printed value. Calls of active or inactive are those of the source. The calls are words filed in the database; no cut-off is given here.
Legend:
[1] = Inhibition of trypsin
[2] = Inhibition of chymotrypsin at 100 ug/mL
Plasminogen = Plasminogen (Homo sapiens, UniProt P00747); assay: Inhibition of plasmin
Papain (Carica papaya) = molecular target: T1, Papain (Carica papaya) (UniProt P00784); assay: Inhibition of Carica papaya papain at 100 ug/mL
T1 sequence (whole entry): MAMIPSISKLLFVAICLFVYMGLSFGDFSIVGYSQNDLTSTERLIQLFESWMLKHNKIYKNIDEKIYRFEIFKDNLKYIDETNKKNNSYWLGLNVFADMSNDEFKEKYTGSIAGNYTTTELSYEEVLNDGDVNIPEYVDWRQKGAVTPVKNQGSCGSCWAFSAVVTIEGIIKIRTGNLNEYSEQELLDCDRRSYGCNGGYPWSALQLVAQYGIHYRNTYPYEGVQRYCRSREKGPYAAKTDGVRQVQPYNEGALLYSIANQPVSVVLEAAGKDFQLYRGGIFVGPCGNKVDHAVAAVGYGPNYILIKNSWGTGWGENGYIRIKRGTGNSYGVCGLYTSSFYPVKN

[3] = Inhibition of elastase at 100 ug/mL
[4] = molecular target: Prothrombin (Homo sapiens) (UniProt P00734); assay: Inhibition of thrombin at 100 ug/mL

Chain of Plasminogen (P00747 97-580 limits assumed): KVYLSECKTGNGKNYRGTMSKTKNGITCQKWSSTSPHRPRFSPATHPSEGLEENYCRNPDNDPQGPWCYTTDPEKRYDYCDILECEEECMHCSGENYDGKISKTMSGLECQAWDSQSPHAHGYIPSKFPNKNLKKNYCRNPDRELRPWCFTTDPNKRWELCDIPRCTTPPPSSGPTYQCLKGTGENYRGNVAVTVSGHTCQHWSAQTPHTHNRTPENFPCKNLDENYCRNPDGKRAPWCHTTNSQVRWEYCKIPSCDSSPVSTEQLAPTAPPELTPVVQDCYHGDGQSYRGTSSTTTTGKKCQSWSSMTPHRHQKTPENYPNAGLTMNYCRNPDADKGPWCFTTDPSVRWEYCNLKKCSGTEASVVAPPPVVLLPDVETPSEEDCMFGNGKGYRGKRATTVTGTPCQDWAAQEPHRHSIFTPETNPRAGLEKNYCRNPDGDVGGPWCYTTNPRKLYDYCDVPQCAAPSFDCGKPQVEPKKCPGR
Chain of Plasminogen (P00747 581-810 limits assumed): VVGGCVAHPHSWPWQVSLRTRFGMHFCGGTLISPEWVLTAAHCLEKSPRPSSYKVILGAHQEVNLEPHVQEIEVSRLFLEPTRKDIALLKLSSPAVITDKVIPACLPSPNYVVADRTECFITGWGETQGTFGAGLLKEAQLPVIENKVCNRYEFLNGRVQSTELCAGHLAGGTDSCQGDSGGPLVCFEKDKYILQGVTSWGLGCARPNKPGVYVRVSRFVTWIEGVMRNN

- IC50 [1]: 0.1 µg/mL (≈ 0.232 µM)
- Activity [2]: inactive
- IC50 (Plasminogen): 209 µM
- Activity (Papain (Carica papaya)): inactive
- Activity [3]: inactive
- Activity [4]: inactive
Structure (SMILES): CC(=O)N[C@@H](/C=C1/C=C[C@H](N)CC1)C(=O)N[C@@H](/C=C1/C=C[C@H](NC(C)=O)CC1)C(=O)O [DEHYDRORADIOSUMIN]

Reference: ChEMBL document CHEMBL1150915, “Dehydroradiosumin, a trypsin inhibitor from the cyanobacterium Anabaena cylindrica” (J Nat Prod, 1998)
